Source: ChEMBL document CHEMBL5058645, “Data for DCP probe JNJ-6204” (2022)

Columns and labels:
[1] = target: Protein kinase C eta type (Homo sapiens) (UniProt P24723); assay: PKCeta (h) Kinase panel; conditions: Compound concentration 1.0 uM, tested as the 2H-labelled form
[2] = target: Calcium/calmodulin-dependent protein kinase type IV (Homo sapiens) (UniProt Q16566); assay: CaMKIV(h) Kinase panel; conditions: Compound concentration 1.0 uM, tested as the 2H-labelled form
[3] = target: Mitogen-activated protein kinase kinase kinase 11 (Homo sapiens) (UniProt Q16584); assay: MLK3(h) Kinase panel; conditions: Compound concentration 1.0 uM, tested as the 2H-labelled form
[4] = target: Rhodopsin kinase GRK7 (Homo sapiens) (UniProt Q8WTQ7); assay: GRK7(h) Kinase panel; conditions: Compound concentration 1.0 uM, tested as the 2H-labelled form
[5] = target: Calcium/calmodulin-dependent protein kinase type II subunit delta (Homo sapiens) (UniProt Q13557); assay: CaMKIIdelta(h) Kinase panel; conditions: Compound concentration 1.0 uM, tested as the 2H-labelled form
[6] = target: 5-hydroxytryptamine receptor 1A (Homo sapiens) (UniProt P08908); conditions: Compound concentration 10.0 uM, tested as the 2H-labelled form
[7] = target: RAC-alpha serine/threonine-protein kinase (Homo sapiens) (UniProt P31749); assay: PKBalpha (h) Kinase panel; conditions: Compound concentration 1.0 uM, tested as the 2H-labelled form
[8] = target: Serine/threonine-protein kinase N2 (Homo sapiens) (UniProt Q16513); assay: PRK2(h) Kinase panel; conditions: Compound concentration 1.0 uM, tested as the 2H-labelled form
[9] = target: Tyrosine-protein kinase Mer (Homo sapiens) (UniProt Q12866); assay: Mer(h) Kinase panel; conditions: Compound concentration 1.0 uM, tested as the 2H-labelled form
[10] = target: D(4) dopamine receptor (Homo sapiens) (UniProt P21917); conditions: Compound concentration 10.0 uM, tested as the 2H-labelled form
[11] = target: Mitogen-activated protein kinase kinase kinase 2 (Homo sapiens) (UniProt Q9Y2U5); assay: MEKK2(h) Kinase panel; conditions: Compound concentration 1.0 uM, tested as the 2H-labelled form
[12] = target: Activin receptor type-1B (Homo sapiens) (UniProt P36896); assay: ALK4(h) Kinase panel; conditions: Compound concentration 1.0 uM, tested as the 2H-labelled form
[13] = target: Serine/threonine-protein kinase WNK1 (Homo sapiens) (UniProt Q9H4A3); assay: WNK1(h) Kinase panel; conditions: Compound concentration 1.0 uM, tested as the 2H-labelled form
[14] = target: Serine/threonine-protein kinase pim-2 (Homo sapiens) (UniProt Q9P1W9); assay: Pim-2(h) Kinase panel; conditions: Compound concentration 1.0 uM, tested as the 2H-labelled form
[15] = target: Tyrosine-protein kinase ABL1 (Homo sapiens) (UniProt P00519); assay: Abl(h) Kinase panel; conditions: Compound concentration 1.0 uM, tested as the 2H-labelled form
[16] = target: Myosin light chain kinase 2, skeletal/cardiac muscle (Homo sapiens) (UniProt Q9H1R3); assay: MYLK2(h) Kinase panel; conditions: Compound concentration 1.0 uM, tested as the 2H-labelled form
[17] = target: Serine/threonine-protein kinase 33 (Homo sapiens) (UniProt Q9BYT3); assay: STK33(h) Kinase panel; conditions: Compound concentration 1.0 uM, tested as the 2H-labelled form
[18] = target: Calcium/calmodulin-dependent protein kinase kinase 2 (Homo sapiens) (UniProt Q96RR4); assay: CaMKK2(h) Kinase panel; conditions: Compound concentration 1.0 uM, tested as the 2H-labelled form
[19] = target: Serine/threonine-protein kinase 17A (Homo sapiens) (UniProt Q9UEE5); assay: DRAK1(h) Kinase panel; conditions: Compound concentration 1.0 uM, tested as the 2H-labelled form
[20] = target: Serine/threonine-protein kinase TAO3 (Homo sapiens) (UniProt Q9H2K8); assay: TAO3(h) Kinase panel; conditions: Compound concentration 1.0 uM, tested as the 2H-labelled form
[21] = target: AP2-associated protein kinase 1 (Homo sapiens) (UniProt Q2M2I8); assay: AAK1(h) Kinase panel; conditions: Compound concentration 1.0 uM, tested as the 2H-labelled form
[22] = target: Tyrosine-protein kinase Yes (Homo sapiens) (UniProt P07947); assay: Yes(h) Kinase panel; conditions: Compound concentration 1.0 uM, tested as the 2H-labelled form
[23] = target: Protein kinase C gamma type (Homo sapiens) (UniProt P05129); assay: PKCgamma(h) Kinase panel; conditions: Compound concentration 1.0 uM, tested as the 2H-labelled form
[24] = target: Kappa-type opioid receptor (Homo sapiens) (UniProt P41145); conditions: Compound concentration 10.0 uM, tested as the 2H-labelled form
[25] = target: Cyclin-dependent kinase-like 2 (Homo sapiens) (UniProt Q92772); assay: CDKL2(h) Kinase panel; conditions: Compound concentration 1.0 uM, tested as the 2H-labelled form
[26] = target: Casein kinase I isoform delta (Homo sapiens, UniProt P48730); conditions: Compound concentration 1.0 uM
[27] = target: Serine/threonine-protein kinase PAK 6 (Homo sapiens) (UniProt Q9NQU5); assay: PAK6(h) Kinase panel; conditions: Compound concentration 1.0 uM, tested as the 2H-labelled form
[28] = target: Muscarinic acetylcholine receptor M1 (Homo sapiens) (UniProt P11229); conditions: Compound concentration 10.0 uM, tested as the 2H-labelled form
[29] = target: Homeodomain-interacting protein kinase 1 (Homo sapiens) (UniProt Q86Z02); assay: HIPK1(h) Kinase panel; conditions: Compound concentration 1.0 uM, tested as the 2H-labelled form
[30] = target: Ribosomal protein S6 kinase alpha-1 (Homo sapiens) (UniProt Q15418); assay: Rsk1(h) Kinase panel; conditions: Compound concentration 1.0 uM, tested as the 2H-labelled form
[31] = target: Maternal embryonic leucine zipper kinase (Homo sapiens) (UniProt Q14680); assay: MELK(h) Kinase panel; conditions: Compound concentration 1.0 uM, tested as the 2H-labelled form
[32] = target: Ephrin type-B receptor 2 (Homo sapiens) (UniProt P29323); assay: EphB2(h) Kinase panel; conditions: Compound concentration 1.0 uM, tested as the 2H-labelled form
[33] = target: Serine/threonine-protein kinase MRCK gamma (Homo sapiens) (UniProt Q6DT37); assay: MRCKgamma(h) Kinase panel; conditions: Compound concentration 1.0 uM, tested as the 2H-labelled form
[34] = target: Dual specificity protein kinase TTK (Homo sapiens) (UniProt P33981); assay: TTK(h) Kinase panel; conditions: Compound concentration 1.0 uM, tested as the 2H-labelled form
[35] = target: Mitogen-activated protein kinase kinase kinase kinase 4 (Homo sapiens) (UniProt O95819); assay: MAP4K4(h) Kinase panel; conditions: Compound concentration 1.0 uM, tested as the 2H-labelled form
[36] = target: Serine/threonine-protein kinase Nek1 (Homo sapiens) (UniProt Q96PY6); assay: NEK1(h) Kinase panel; conditions: Compound concentration 1.0 uM, tested as the 2H-labelled form
[37] = target: Alpha-2B adrenergic receptor (Homo sapiens) (UniProt P18089); conditions: Compound concentration 10.0 uM, tested as the 2H-labelled form
[38] = target: Cyclin-dependent kinase 5 (Homo sapiens) (UniProt Q00535); assay: CDK5/p25(h) Kinase panel; conditions: Compound concentration 1.0 uM, tested as the 2H-labelled form
[39] = target: Dual specificity mitogen-activated protein kinase kinase 1 (Homo sapiens) (UniProt Q02750); assay: MEK1(h) Kinase panel; conditions: Compound concentration 1.0 uM, tested as the 2H-labelled form
[40] = target: Inhibitor of nuclear factor kappa-B kinase subunit alpha (Homo sapiens) (UniProt O15111); assay: IKKalpha(h) Kinase panel; conditions: Compound concentration 1.0 uM, tested as the 2H-labelled form
[41] = target: Homeodomain-interacting protein kinase 2 (Homo sapiens) (UniProt Q9H2X6); assay: HIPK2(h) Kinase panel; conditions: Compound concentration 1.0 uM, tested as the 2H-labelled form
[42] = target: Tau-tubulin kinase 2 (Homo sapiens) (UniProt Q6IQ55); assay: TTBK2(h) Kinase panel; conditions: Compound concentration 1.0 uM, tested as the 2H-labelled form
[43] = target: Leukocyte tyrosine kinase receptor (Homo sapiens) (UniProt P29376); assay: LTK(h) Kinase panel; conditions: Compound concentration 1.0 uM, tested as the 2H-labelled form
[44] = target: Serine/threonine-protein kinase mTOR (Homo sapiens) (UniProt P42345); assay: mTOR(h) Kinase panel; conditions: Compound concentration 1.0 uM, tested as the 2H-labelled form
[45] = target: Ephrin type-A receptor 4 (Homo sapiens) (UniProt P54764); assay: EphA4(h) Kinase panel; conditions: Compound concentration 1.0 uM, tested as the 2H-labelled form
[46] = target: Casein kinase I isoform gamma-2 (Homo sapiens) (UniProt P78368); assay: CK1gamma2(h) Kinase panel; conditions: Compound concentration 1.0 uM, tested as the 2H-labelled form
[47] = target: Inhibitor of nuclear factor kappa-B kinase subunit epsilon (Homo sapiens) (UniProt Q14164); assay: IKKepsilon(h) Kinase panel; conditions: Compound concentration 1.0 uM, tested as the 2H-labelled form
[48] = target: Ephrin type-A receptor 7 (Homo sapiens) (UniProt Q15375); assay: EphA7(h) Kinase panel; conditions: Compound concentration 1.0 uM, tested as the 2H-labelled form
[49] = target: Serine/threonine-protein kinase BRSK2 (Homo sapiens) (UniProt Q8IWQ3); assay: BrSK2(h) Kinase panel; conditions: Compound concentration 1.0 uM, tested as the 2H-labelled form

Measured: inhibition

Chain of Serine/threonine-protein kinase BRSK2 (Homo sapiens) (Q8IWQ3 whole entry): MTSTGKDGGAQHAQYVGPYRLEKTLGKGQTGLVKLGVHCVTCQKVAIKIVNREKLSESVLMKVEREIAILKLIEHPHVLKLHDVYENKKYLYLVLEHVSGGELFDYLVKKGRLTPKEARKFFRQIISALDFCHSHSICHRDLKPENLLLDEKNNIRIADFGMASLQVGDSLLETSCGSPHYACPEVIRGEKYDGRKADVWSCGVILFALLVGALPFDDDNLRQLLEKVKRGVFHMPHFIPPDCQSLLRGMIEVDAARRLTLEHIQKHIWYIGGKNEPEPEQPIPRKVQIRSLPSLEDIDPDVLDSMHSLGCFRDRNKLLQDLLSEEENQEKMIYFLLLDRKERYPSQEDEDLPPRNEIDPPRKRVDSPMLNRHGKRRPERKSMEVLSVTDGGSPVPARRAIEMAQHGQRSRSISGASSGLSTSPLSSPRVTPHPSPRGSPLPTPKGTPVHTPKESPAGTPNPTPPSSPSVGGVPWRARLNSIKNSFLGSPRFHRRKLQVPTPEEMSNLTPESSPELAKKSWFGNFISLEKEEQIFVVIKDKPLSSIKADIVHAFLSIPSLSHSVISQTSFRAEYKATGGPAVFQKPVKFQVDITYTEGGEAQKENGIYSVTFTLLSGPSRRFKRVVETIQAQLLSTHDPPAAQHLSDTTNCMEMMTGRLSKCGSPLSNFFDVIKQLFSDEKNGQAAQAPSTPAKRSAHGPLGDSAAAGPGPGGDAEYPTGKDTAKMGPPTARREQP
Chain of Homeodomain-interacting protein kinase 1 (Homo sapiens) (Q86Z02 whole entry, looked up): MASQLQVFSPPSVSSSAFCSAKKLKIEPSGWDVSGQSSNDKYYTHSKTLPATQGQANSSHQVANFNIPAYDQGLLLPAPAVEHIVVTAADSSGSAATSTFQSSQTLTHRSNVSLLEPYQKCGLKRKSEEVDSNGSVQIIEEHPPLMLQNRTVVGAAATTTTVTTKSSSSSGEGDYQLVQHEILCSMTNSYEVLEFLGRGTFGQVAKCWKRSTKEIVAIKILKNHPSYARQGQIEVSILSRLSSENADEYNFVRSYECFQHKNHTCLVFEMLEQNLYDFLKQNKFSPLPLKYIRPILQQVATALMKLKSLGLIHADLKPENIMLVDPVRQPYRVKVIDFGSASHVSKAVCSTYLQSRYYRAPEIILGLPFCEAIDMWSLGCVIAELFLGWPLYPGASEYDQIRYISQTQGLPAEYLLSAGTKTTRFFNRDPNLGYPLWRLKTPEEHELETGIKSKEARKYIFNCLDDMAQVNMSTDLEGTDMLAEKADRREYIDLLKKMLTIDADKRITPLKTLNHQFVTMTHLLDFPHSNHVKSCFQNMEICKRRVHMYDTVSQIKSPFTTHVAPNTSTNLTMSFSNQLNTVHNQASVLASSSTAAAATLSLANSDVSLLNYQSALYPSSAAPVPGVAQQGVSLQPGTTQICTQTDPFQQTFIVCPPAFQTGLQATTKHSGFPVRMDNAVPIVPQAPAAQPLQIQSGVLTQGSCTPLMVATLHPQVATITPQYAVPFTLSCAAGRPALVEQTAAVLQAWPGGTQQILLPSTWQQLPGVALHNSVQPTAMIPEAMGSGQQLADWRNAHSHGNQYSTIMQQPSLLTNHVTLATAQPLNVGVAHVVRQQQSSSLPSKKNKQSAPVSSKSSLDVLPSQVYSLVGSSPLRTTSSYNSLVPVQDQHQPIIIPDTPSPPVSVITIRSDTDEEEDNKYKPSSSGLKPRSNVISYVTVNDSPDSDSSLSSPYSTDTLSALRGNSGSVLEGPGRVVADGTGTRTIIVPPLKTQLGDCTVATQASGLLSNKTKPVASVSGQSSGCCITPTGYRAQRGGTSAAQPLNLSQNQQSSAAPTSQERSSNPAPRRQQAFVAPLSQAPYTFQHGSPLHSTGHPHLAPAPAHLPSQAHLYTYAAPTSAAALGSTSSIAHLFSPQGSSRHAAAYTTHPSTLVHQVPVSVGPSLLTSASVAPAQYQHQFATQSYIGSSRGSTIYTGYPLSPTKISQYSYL
Chain of Mitogen-activated protein kinase kinase kinase 11 (Homo sapiens) (Q16584 whole entry, looked up): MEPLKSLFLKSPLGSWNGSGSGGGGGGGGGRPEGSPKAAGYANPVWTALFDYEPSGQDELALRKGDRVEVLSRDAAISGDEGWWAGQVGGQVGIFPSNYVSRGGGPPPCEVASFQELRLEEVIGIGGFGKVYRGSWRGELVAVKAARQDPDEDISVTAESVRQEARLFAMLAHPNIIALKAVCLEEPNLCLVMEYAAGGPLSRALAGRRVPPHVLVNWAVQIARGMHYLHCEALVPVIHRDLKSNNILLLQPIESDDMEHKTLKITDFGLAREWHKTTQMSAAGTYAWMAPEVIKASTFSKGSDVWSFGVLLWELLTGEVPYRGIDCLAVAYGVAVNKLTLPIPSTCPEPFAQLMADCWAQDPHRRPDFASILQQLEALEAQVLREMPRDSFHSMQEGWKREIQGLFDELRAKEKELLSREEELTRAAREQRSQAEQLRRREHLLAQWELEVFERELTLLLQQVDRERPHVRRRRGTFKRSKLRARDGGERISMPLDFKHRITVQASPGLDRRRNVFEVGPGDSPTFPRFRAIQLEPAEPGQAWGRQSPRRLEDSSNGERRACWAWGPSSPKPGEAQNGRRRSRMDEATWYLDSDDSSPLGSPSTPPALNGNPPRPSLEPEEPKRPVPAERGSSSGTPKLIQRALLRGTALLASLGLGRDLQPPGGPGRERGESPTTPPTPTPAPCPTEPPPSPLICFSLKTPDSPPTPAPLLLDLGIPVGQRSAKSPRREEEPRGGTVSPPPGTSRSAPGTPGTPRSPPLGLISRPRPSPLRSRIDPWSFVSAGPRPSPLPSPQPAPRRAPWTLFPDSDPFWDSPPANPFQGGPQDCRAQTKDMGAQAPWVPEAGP
Chain of Serine/threonine-protein kinase MRCK gamma (Homo sapiens) (Q6DT37 whole entry): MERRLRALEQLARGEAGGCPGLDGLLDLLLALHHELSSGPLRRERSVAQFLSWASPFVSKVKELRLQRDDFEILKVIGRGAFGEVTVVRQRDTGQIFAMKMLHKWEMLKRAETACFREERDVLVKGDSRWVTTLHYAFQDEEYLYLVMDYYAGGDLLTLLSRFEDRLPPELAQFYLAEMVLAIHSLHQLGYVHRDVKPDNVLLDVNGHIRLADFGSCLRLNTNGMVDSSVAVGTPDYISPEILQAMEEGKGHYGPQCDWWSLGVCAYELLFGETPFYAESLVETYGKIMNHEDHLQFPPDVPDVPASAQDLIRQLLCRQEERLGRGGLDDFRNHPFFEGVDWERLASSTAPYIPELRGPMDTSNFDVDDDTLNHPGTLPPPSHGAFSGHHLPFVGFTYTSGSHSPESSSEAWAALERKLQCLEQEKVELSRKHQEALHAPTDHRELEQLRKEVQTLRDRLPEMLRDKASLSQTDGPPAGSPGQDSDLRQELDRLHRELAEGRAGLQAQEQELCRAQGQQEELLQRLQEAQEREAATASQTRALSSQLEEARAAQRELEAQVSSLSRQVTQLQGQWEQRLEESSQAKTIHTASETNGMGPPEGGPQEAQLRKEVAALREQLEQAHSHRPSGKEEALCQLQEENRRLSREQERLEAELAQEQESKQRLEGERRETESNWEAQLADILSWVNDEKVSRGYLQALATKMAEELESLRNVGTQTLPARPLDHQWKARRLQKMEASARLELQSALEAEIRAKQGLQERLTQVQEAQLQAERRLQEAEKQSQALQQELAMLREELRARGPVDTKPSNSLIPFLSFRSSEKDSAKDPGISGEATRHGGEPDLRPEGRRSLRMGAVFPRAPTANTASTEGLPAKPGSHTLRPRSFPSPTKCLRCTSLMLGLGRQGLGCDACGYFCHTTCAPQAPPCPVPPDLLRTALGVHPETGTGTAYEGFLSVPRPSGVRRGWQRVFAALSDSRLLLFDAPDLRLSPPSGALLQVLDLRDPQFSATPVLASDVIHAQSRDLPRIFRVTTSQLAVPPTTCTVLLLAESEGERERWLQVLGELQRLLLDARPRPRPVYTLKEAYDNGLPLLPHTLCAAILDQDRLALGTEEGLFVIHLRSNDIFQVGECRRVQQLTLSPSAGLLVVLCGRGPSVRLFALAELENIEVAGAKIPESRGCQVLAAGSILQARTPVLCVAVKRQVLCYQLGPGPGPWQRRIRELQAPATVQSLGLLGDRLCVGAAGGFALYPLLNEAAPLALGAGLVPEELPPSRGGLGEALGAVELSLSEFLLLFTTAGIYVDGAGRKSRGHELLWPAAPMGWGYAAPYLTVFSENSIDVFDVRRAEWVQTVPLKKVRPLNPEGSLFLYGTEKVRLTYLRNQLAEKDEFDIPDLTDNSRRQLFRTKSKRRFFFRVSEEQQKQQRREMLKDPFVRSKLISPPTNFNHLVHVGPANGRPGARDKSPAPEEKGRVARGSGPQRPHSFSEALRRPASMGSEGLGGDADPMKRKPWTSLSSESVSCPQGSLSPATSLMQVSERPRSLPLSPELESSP
Chain of Cyclin-dependent kinase 5 (Homo sapiens) (Q00535 whole entry, looked up): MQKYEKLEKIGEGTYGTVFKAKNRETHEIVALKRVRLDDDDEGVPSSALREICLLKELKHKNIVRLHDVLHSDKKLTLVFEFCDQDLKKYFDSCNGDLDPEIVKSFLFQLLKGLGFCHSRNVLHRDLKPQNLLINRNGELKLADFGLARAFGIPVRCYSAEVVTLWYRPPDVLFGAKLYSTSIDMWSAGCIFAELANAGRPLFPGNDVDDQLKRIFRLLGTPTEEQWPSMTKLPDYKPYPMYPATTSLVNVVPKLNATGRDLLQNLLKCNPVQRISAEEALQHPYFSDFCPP
Chain of Kappa-type opioid receptor (Homo sapiens) (P41145 whole entry): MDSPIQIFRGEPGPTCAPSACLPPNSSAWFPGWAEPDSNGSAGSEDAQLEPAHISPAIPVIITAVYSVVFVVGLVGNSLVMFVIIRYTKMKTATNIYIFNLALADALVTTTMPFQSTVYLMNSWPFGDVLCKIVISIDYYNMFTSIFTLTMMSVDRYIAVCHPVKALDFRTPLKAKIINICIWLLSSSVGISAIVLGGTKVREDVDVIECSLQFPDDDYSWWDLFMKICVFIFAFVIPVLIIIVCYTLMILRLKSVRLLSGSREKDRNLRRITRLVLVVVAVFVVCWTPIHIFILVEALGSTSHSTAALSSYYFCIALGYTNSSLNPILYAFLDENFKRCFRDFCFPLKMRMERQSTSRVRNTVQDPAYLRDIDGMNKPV

CC1(C)Cn2nc(-c3ccc(F)cn3)c(-c3ccnc4[nH]ncc34)c2CO1
inactive: [1] 19% | [2] -5% | [3] 5% | [4] 16% | [5] -6% | [6] 1.3% | [7] 2% | [8] -6% | [9] 6% | [10] -5.66% | [11] 5% | [12] 25% | [13] 7% | [14] -4% | [15] -1% | [16] 23% | [17] 5% | [18] -9% | [19] 14% | [20] 5% | [21] 5% | [22] -6% | [23] 3% | [24] 12% | [25] 0% | [26] 105% | [27] 5% | [28] -1.28% | [29] 3% | [30] 9% | [31] 9% | [32] 3% | [33] 3% | [34] 10% | [35] 21% | [36] 5% | [37] 2.83% | [38] 20% | [39] 4% | [40] 8% | [41] 21% | [42] 0% | [43] 13% | [44] -9% | [45] 0% | [46] -1% | [47] -1% | [48] 8% | [49] -2%
